Here are results for 40 compounds from US9242933B2 (AbbVie Deutschland GmbH & Co. KG, priority 2007, dated 2016).

In the experiment the target is T1, human mGlu2 receptor (Homo sapiens, UniProt Q14416).
T1 construct: expressed in transfected cells; host or cells: HEK293
T1 sequence (Q14416 19-872): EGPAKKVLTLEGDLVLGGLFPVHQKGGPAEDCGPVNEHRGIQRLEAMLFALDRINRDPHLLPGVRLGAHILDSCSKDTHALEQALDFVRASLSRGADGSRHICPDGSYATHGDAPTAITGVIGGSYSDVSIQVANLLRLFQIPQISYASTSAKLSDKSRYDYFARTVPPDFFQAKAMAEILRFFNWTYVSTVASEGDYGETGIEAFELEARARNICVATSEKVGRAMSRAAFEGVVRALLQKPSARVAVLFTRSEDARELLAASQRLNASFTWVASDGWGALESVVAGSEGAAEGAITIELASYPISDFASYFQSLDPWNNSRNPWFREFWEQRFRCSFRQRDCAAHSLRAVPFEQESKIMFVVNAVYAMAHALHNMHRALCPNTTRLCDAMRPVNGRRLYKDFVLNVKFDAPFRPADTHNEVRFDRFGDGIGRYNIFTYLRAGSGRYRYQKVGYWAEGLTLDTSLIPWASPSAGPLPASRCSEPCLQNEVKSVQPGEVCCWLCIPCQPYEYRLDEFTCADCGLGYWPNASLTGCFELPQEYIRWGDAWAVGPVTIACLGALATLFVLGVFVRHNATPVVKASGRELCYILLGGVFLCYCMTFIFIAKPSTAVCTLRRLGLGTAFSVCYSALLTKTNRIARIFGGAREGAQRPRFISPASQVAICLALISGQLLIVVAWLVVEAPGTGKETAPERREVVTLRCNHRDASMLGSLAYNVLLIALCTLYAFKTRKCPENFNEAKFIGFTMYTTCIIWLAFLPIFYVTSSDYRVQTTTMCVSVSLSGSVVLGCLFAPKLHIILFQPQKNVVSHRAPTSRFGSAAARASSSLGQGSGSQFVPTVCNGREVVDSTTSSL
The experiment can be described thus: FLIPR intracellular Ca2+ assay, potentiation of glutamate response in HEK293 clone expressing mGlu2 receptor, rGLAST and Galpha16. The settings on record: 1 μM glutamate added ten minutes after test compound, HEK293 cells with human mGlu2, rGLAST, Galpha16, read-out: EC50 values of potentiation effect to glutamate. It is filed as cell-based. In outline:
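HEK293 cells stably expressing human mGlu2, rat GLAST and Gα16 were loaded with 2 µM Fluo-4 AM and intracellular Ca2+ read by FLIPR. Compound added alone (agonism), then with submaximal glutamate (e.g. 1 µM; potentiation). Background-subtracted peaks normalized to 100 µM glutamate response; EC50 from four-parameter fit.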
For “2-Propyl-6-{[3-(4-trifluoromethyl-phenyl)-1H-pyrazol-4-ylmethyl]-amino}-2,3-dihydro-isoquinolin-1-one [Example 584]”, the EC50 was below 1000 nM.
In the case of `CN(C)c1cccc(N(Cc2cccnc2)S(=O)(=O)CC(F)(F)F)c1` [Example 389, 2,2,2-Trifluoro-ethanesulfonic acid (3-dimethylamino-phenyl)-pyridin-3-ylmethyl-amide], the EC50 was in the range of 1000 to 10000 nM.
For the compound `CCCN1Cc2cc(OCc3c[nH]nc3-c3ccc(F)cc3)ccc2C1=O` [Example 533, 5-[3-(4-Fluorophenyl)-1H-pyrazol-4-ylmethoxy]-2-propyl-2,3-dihydro-isoindol-1-one], the concentration giving a half-maximal response (EC50) is below 1000 nM.
Regarding `CC(C)(C)c1n[nH]cc1CN(c1cccc(OC2CCCC2)c1)S(=O)(=O)CC(F)(F)F` [Example 458, 2,2,2-Trifluoro-ethanesulfonic acid (3-tert-butyl-1H-pyrazol-4-ylmethyl)-(3-cyclopentyloxy-phenyl)-amide], the EC50 fell in the range of 1000 to 10000 nM.
Turning to `CC(C)(C)c1n[nH]cc1CNc1ccc2c(c1)OCO2` [Example 117, Benzo[1,3]dioxol-5-yl-(3-tert-butyl-1H-pyrazol-4-ylmethyl)-amine], the concentration giving a half-maximal response (EC50) lay within 1000 to 10000 nM.
Consider `CCCC(=O)c1ccc(NCc2ccc3ncccc3c2)cc1` [Example 25, 1-{4-[(Quinolin-6-ylmethyl)amino]phenyl}butan-1-one], for which the EC50 lay within 1000 to 10000 nM.
Turning to `CCCC(=O)c1ccc(NCc2cnn3ccccc23)cc1` [Example 529, 1-{4-[(Pyrazolo[1,5-a]pyridin-3-ylmethyl)-amino]-phenyl}-butan-1-one], the EC50 lay within 1000 to 10000 nM.
`CCCC(=O)c1ccc(NCc2cn[nH]c2)cc1` [Example 68, 1-{4-[(1H-Pyrazol-4-ylmethyl)amino]phenyl}butan-1-one]: the EC50 lay within 1000 to 10000 nM.
Under `CCCC(=O)c1ccc(OCc2c[nH]nc2-c2cccc(C(F)(F)F)c2)cc1` [Example 498, 1-{4-[3-(3-Trifluoromethyl-phenyl)-1H-pyrazol-4-ylmethoxy]-phenyl}-butan-1-one] stands below 1000 nM.
Regarding `CN1Cc2cc(OCc3c[nH]nc3-c3ccc(C(F)(F)F)cc3)ccc2C1=O` [Example 573, 2-Methyl-5-[3-(4-trifluoromethyl-phenyl)-1H-pyrazol-4-ylmethoxy]-2,3-dihydro-isoindol-1-one], the concentration for a half-maximal effect (EC50) is below 1000 nM.
Take `CCCC(=O)c1ccc(NCc2ccnn2-c2ccccc2)cc1` [Example 57, 1-{4-[(2-Phenyl-2H-pyrazol-3-ylmethyl)amino]phenyl}butan-1-one]: the EC50 is 1000 to 10000 nM.
As for `FC(F)(F)c1ccc(-c2n[nH]cc2CNc2ccc(Cl)cn2)cc1` [Example 340, (5-Chloro-pyridin-2-yl)-[3-(4-trifluoromethyl-phenyl)-1H-pyrazol-4-ylmethyl]-amine], the EC50 was 1000 to 10000 nM.
With `CC(=O)c1sccc1NCc1c[nH]nc1-c1ccc(C(F)(F)F)cc1` [Example 355, 1-(3-{[3-(4-Trifluoromethyl-phenyl)-1H-pyrazol-4-ylmethyl]-amino}-thiophen-2-yl)-ethanone], the EC50 lay in the range of 1000 to 10000 nM.
Regarding `CCC(C)Oc1cccc(N(Cc2c[nH]nc2-c2ccc(C(F)(F)F)cc2)S(=O)(=O)CC(F)(F)F)c1` (stereo not shown) [Example 456, 2,2,2-Trifluoro-ethanesulfonic acid (3-sec-butoxy-phenyl)-[3-(4-trifluoromethyl-phenyl)-1H-pyrazol-4-ylmethyl]-amide], the EC50 lay in the range of 1000 to 10000 nM.
Regarding `CCCC(=O)c1ccc(NCc2cnn(C)c2C)cc1` [Example 60, 1-{4-[(1,5-Dimethyl-1H-pyrazol-4-ylmethyl)amino]phenyl}butan-1-one], the EC50 lay in the range of 1000 to 10000 nM.
For the compound `CCCC(=O)c1ccc(NCc2n[nH]cc2-c2ccc(OC)cc2)cc1` [Example 513, 1-(4-{[4-(4-Methoxy-phenyl)-1H-pyrazol-3-ylmethyl]-amino}-phenyl)-butan-1-one], the EC50 was below 1000 nM.
Take `CCCN1Cc2cc(OCc3c[nH]nc3-c3ccc(C(F)(F)F)cc3)ccc2C1=O` [Example 531, 2-Propyl-5-[3-(4-trifluoromethyl-phenyl)-1H-pyrazol-4-ylmethoxy]-2,3-dihydro-isoindol-1-one]: the EC50 is below 1000 nM.
Under `COc1cc(NCc2c[nH]nc2C(C)(C)C)cc(OC)c1` [Example 116, (3-tert-Butyl-1H-pyrazol-4-ylmethyl)-(3,5-dimethoxyphenyl)-amine] stands 1000 to 10000 nM.
Under `CCCC(=O)c1ccc(NCc2c[nH]nc2C)cc1` [Example 475, 1-{4-[(3-Methyl-1H-pyrazol-4-ylmethyl)-amino]-phenyl}-butan-1-one] stands 1000 to 10000 nM; under `CCCC(=O)c1ccc(NCc2c(C)nn(C)c2Oc2ccc(Cl)cc2)cc1` [Example 49, 1-(4-{[5-(4-Chlorophenoxy)-1,3-dimethyl-1H-pyrazol-4-ylmethyl]amino}phenyl)butan-1-one], 1000 to 10000 nM; under `CCCC(=O)c1ccc(OCc2c[nH]nc2-c2ccccc2)cc1` [Example 499, 1-[4-(3-Phenyl-1H-pyrazol-4-ylmethoxy)-phenyl]-butan-1-one], below 1000 nM.
The same measure for `CCCC(=O)c1ccc(NCc2cccnc2-c2ccsc2)cc1` [Example 321, 1-{4-[(2-Thiophen-3-yl-pyridin-3-ylmethyl)-amino]-phenyl}-butan-1-one]: 1000 to 10000 nM; for `CCCCCC(=O)c1ccc(OCc2c[nH]nc2-c2ccc(C(F)(F)F)cc2)cc1` [Example 491, 1-{4-[3-(4-Trifluoromethyl-phenyl)-1H-pyrazol-4-ylmethoxy]-phenyl}-hexan-1-one]: below 1000 nM; for `CCCC(=O)c1ccc(NCc2c[nH]nc2CC)cc1` [Example 478, 1-{4-[(3-Ethyl-1H-pyrazol-4-ylmethyl)-amino]-phenyl}-butan-1-one]: 1000 to 10000 nM.
Take `CN(C)S(=O)(=O)c1cccc(NCc2c[nH]nc2-c2ccc(Cl)cc2)c1` [Example 430, 3-{[3-(4-Chloro-phenyl)-1H-pyrazol-4-ylmethyl]-amino}-N,N-dimethyl-benzenesulfonamide]: the concentration for a half-maximal effect (EC50) fell in the range of 1000 to 10000 nM.
Under `CCCC(=O)c1ccc(NCc2c[nH]nc2-c2cc(F)cc(F)c2)cc1` [Example 213, 1-(4-{[3-(3,5-Difluorophenyl)-1H-pyrazol-4-ylmethyl]-amino}-phenyl)-butan-1-one] stands below 1000 nM; under `CC(=O)c1ccc(OCc2c[nH]nc2-c2ccc(C(F)(F)F)cc2)cc1` [Example 483, 1-{4-[3-(4-Trifluoromethyl-phenyl)-1H-pyrazol-4-ylmethoxy]-phenyl}-ethanone], 1000 to 10000 nM.
As to `CCCC(=O)c1ccc(NCc2c(CSc3ccccc3)nn(C)c2Cl)cc1` [Example 52, 1-(4-{[5-Chloro-1-methyl-3-(phenylthiomethyl)-1H-pyrazol-4-ylmethyl]amino}phenyl)butan-1-one], the EC50 is 1000 to 10000 nM.
With `O=C1c2ccc(OCc3c[nH]nc3-c3ccc(C(F)(F)F)cc3)cc2CN1C1CCCC1` [Example 588, 2-Cyclopentyl-5-[3-(4-trifluoromethyl-phenyl)-1H-pyrazol-4-ylmethoxy]-2,3-dihydro-isoindol-1-one], the EC50 was below 1000 nM.
The same measure for `CCCC(=O)c1ccc(NCc2csc(-c3ccccc3)n2)cc1` [Example 46, 1-{4-[(2-Phenylthiazol-4-ylmethyl)amino]phenyl}butan-1-one]: 1000 to 10000 nM; for `O=C1c2ccc(OCc3c[nH]nc3-c3ccc(C(F)(F)F)cc3)cc2CN1CC1CCCCC1` [Example 586, 2-Cyclohexylmethyl-5-[3-(4-trifluoromethyl-phenyl)-1H-pyrazol-4-ylmethoxy]-2,3-dihydro-isoindol-1-one]: below 1000 nM.
The same measure for `CS(=O)(=O)c1ccc(NCc2c[nH]nc2-c2ccc(C(F)(F)F)cc2)cc1` [Example 399, (4-Methanesulfonyl-phenyl)-[3-(4-trifluoromethyl-phenyl)-1H-pyrazol-4-ylmethyl]-amine]: 1000 to 10000 nM.
Take `CCCCN1Cc2cc(OCc3c[nH]nc3-c3ccc(C(F)(F)F)cc3)ccc2C1=O` [Example 544, 2-Butyl-5-[3-(4-trifluoromethyl-phenyl)-1H-pyrazol-4-ylmethoxy]-2,3-dihydro-isoindol-1-one]: the concentration for a half-maximal effect (EC50) was below 1000 nM.
`CCCN1Cc2cc(OCc3c[nH]nc3-c3cccc(Cl)c3)ccc2C1=O` [Example 535, 5-[3-(3-Chloro-phenyl)-1H-pyrazol-4-ylmethoxy]-2-propyl-2,3-dihydro-isoindol-1-one]: the EC50 was below 1000 nM.
`CCCC(=O)c1ccc(NCc2c[nH]nc2C(C)(C)C)cc1` [Example 77, 1-{4-[(3-tert-Butyl-1H-pyrazol-4-ylmethyl)amino]phenyl}butan-1-one]: the EC50 is below 1000 nM.
`CCCC(=O)c1ccc(NCc2cn(C)nc2-c2ccc(C(F)(F)F)cc2)cc1` [Example 374, 1-(4-{[1-Methyl-3-(4-trifluoromethyl-phenyl)-1H-pyrazol-4-ylmethyl]-amino}-phenyl)-butan-1-one]: the EC50 is below 1000 nM.
`CCCC(=O)c1ccc(NCc2c[nH]nc2C(C)C)cc1` [Example 477, 1-{4-[(3-Isopropyl-1H-pyrazol-4-ylmethyl)-amino]-phenyl}-butan-1-one]: the EC50 was 1000 to 10000 nM.
Turning to `CCCC(=O)c1ccc(NCc2ccncc2-c2ccccc2)cc1` [Example 524, 1-{4-[(3-Phenyl-pyridin-4-ylmethyl)-amino]-phenyl}-butan-1-one], the EC50 was in the range of 1000 to 10000 nM.
For the compound `CC(=O)c1ccc(OCc2c[nH]nc2-c2ccc(C(F)(F)F)cc2)cc1C` [Example 487, 1-{2-Methyl-4-[3-(4-trifluoromethyl-phenyl)-1H-pyrazol-4-ylmethoxy]-phenyl}-ethanone], the EC50 lay within 1000 to 10000 nM.
On to `CCCC(=O)c1ccc(NCc2ccc(-c3ccc(S(N)(=O)=O)cc3)o2)cc1` [Example 35, 4-{5-[(4-Butyrylphenylamino)methyl]furan-2-yl}benzenesulfonamide], for which the EC50 lay in the range of 1000 to 10000 nM.

What is called EC50 is the midpoint of the concentration-response curve.
